The text below walks through data of patent US20120190669A1, “OXINDOLE COMPOUNDS” (CYLENE PHARMACEUTICALS, INC., priority 2008, published 2012).

The target of one assay is recombinant human PIM2 (Homo sapiens, UniProt Q9P1W9). Description: PIM-2 assay (radiometric). It is filed as biochemical. The note with it: Table 8; read-out: PIM2 IC50. The procedure: Test compounds dissolved and diluted in DMSO ([…]) were added to a reaction mixture comprising […] of 5× Reaction Buffer (40 mM MOPS pH 7.0, 5 mM EDTA), […] of recombinant human PIM2 solution (4 ng PIM-2 dissolved in dilution buffer (20 mM MOPS pH 7.0; EDTA 1 mM; 5% Glycerol; 0.01% Brij 35; […]; […] 2-mercaptoethanol; 1 mg/ml BSA)) and 8 ul of water. Reactions were initiated by the addition of 10 ul of ATP Solution (49% (15 mM MgCl2; 75 uM ATP) 1% ([γ-33P]ATP: Stock 1 mCi/100 μl; 3000 Ci/mmol (Perkin Elmer)) and 10 ul of substrate peptide solution ([…], dissolved in water at a concentration of 1 mM), Reactions were maintained for 10 min at 30° C. The reactions were quenched with 100 ul of 0.75% Phosphoric acid, then transferred to and filtrered through a Phosphocellulose filter plate (Millipore, MSPH-N6B-50). After washing each well 4 times with 0.75% Phosphoric acid, scintillation fluid (20 uL) was added to each well and the residual radioactivity was measured using a Wallac […] counter.
Sequence of recombinant human PIM2 (Q9P1W9 whole entry): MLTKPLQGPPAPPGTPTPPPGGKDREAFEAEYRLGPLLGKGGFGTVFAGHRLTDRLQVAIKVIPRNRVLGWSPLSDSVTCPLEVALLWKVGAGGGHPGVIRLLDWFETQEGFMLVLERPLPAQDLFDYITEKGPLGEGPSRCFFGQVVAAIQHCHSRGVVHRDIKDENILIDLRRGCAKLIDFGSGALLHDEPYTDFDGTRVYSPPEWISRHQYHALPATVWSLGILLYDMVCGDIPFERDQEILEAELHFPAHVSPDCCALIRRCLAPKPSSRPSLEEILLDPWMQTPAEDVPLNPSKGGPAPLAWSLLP

The next assay concerns the target T1, Pim-3 (h) (Homo sapiens, UniProt Q86V86).
T1 construct: purchased Millipore (printed 'Millopore'; assay run as a service at the vendor)
Description: PIM-3 assay run at Millipore. The note with it: Table 8; read-out: PIM3 IC50. It counts as biochemical. On the procedure: The PIM-3 assay was run at Millopore. The following is the assay as described in the Millopore protocol guide. […] (specific activity approx. 500 cpm/pmol, concentration as required). The reaction is initiated by the addition of the MgATP mix. After incubation for 40 minutes at room temperature, the reaction is stopped by the addition of 5 μL of a 3% phosphoric acid solution. 10 μL of the reaction is then spotted onto a P30 filtermat and washed three times for 5 minutes in 75 mM phosphoric acid and once in methanol prior to drying and scintillation counting.

Assay [1] relates to leukemic cells from AML patients. The following applies: Fedorov et al., PNAS 104(51); cited from earlier work.
The test system of the next assay is MV-4-11 (AML) xenograft. The following applies: 2008 AACR Annual Meeting, Abstract No. 4974; cited from earlier work.
The next assay relates to MOLM-13 (AML) xenograft. The note with it: 2008 AACR Annual Meeting, Abstract No. 4974; cited from earlier work.
A further assay addresses recombinant PIM-1 (Homo sapiens, UniProt P11309). Kind of assay: PIM-1 kinase assay (radiometric, 15 uM ATP, DMSO 4%). The following applies: Table 4; 15 um ATP; read-out: PIM1: IC50 (15 um ATP). It counts as biochemical.
The test system of another assay is K-562. Description: Alamar Blue cell proliferation assay, K-562. The following applies: Homo sapiens, K562, Table 4, read-out: AB: K-562. It counts as cell-based. The procedure:
(§1) A representative cell-proliferation assay protocol using Alamar Blue dye (stored at 4° C., use 20 ul per well) is described hereafter.
(§2) 96-Well Plate Setup and Compound Treatment
(§3) a. Split and trypsinize cells.
(§4) b. Count cells using hemocytometer.
(§5) c. Plate 4,000-5,000 cells per well in 100 μl of medium and seed into a 96-well plate according to the following plate layout. Add cell culture medium only to wells B10 to B12. Wells B1 to B9 have cells but no compound added.
(§6) d. Add 100 μl of 2× drug dilution to each well in a concentration shown in the plate layout above. At the same time, add 100 μl of media into the control wells (wells 1310 to B12). Total volume is 200 μl/well.
(§7) e. Incubate four (4) days at 37° C., 5% CO2 in a humidified incubator.
(§8) f. Add 20 μl Alamar Blue reagent to each well.
(§9) g. Incubate for four (4) hours at 37° C., 5% CO2 in a humidified incubator.
(§10) h. Record fluorescence at an excitation wavelength of 544 nm and emission wavelength of 590 nm using a microplate reader.
(§11) In the assays, cells are cultured with a test compound for approximately four days, the dye is then added to the cells and fluorescence of […] dye is detected after approximately four hours. Different types of cells can be utilized in the assays (e.g., HCT-116 human colorectal carcinoma cells, PC-3 human prostatic cancer cells and MiaPaca human pancreatic carcinoma cells).
(The colour change of resazurin is a common sign of viable cells or microbes.)

Assay [2] has as its system MiaPaca human pancreatic carcinoma cells. Kind of assay: Alamar Blue cell proliferation assay, MiaPaCa. The note with it: MIA PaCa-2, Table 4, read-out: AB: MiaPaCa. It counts as cell-based. The procedure:
as §1, §2, §3, §4, §5, §6, §7, §8, §9, §10, §11

In assay [3] the test system is PC-3 human prostatic cancer cells. Description: Alamar Blue cell proliferation assay, PC3. It is filed as cell-based. The following applies: Table 4, read-out: AB: PC3. On the procedure:
as §1, §2, §3, §4, §5, §6, §7, §8, §9, §10, §11

The test system of another assay is MV-4-11. Description: Alamar Blue cell proliferation assay, MV-4-11. It counts as cell-based. The following applies: Homo sapiens, MV4-11, Table 4, read-out: AB: MV-4-11. The procedure:
as §1, §2, §3, §4, §5, §6, §7, §8, §9, §10, §11

A further assay has as its system THP-1. Kind of assay: Alamar Blue cell proliferation assay, THP-1. It counts as cell-based. The note with it: Homo sapiens, Table 4, read-out: AB: THP-1. The procedure: as §1, §2, §3, §4, §5, §6, §7, §8, §9, §10, §11
The subject of a further assay is phospho FLT3. Description: phospho FLT3 cell-based data. The note with it: Table 4.
In the next assay the test system is phospho BAD. Kind of assay: phospho BAD cell-based data. The note with it: Table 4.
A further assay concerns MDAMB-231. Description: Alamar Blue cell proliferation assay, MDAMB-231. It counts as cell-based. The following applies: Homo sapiens, MDA-MB-231, Table 4, read-out: AB: MDAMB231. On the procedure:
as §1, §2, §3, §4, §5, §6, §7, §8, §9, §10, §11

The test system of the next assay is BxPC3. Kind of assay: Alamar Blue cell proliferation assay, BxPC3. It is filed as cell-based. The note with it: Homo sapiens, BXPC-3, Table 4, read-out: AB: BxPC3. The procedure:
as §1, §2, §3, §4, §5, §6, §7, §8, §9, §10, §11

Bounds are passed on as bounds.

Sequence of recombinant PIM-1 (P11309 whole entry): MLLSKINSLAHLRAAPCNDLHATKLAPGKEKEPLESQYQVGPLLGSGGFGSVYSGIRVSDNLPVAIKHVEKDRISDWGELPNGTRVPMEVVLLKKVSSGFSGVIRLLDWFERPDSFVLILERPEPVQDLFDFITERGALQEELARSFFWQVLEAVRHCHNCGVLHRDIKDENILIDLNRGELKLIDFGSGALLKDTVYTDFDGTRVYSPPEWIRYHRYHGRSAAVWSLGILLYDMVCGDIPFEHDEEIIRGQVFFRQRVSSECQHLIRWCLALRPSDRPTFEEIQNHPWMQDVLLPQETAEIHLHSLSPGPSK

`C/C(=C1\C(=O)Nc2ccc(Cl)cc21)c1ccc(-c2ccc(C(=O)N3CCCN(C)CC3)cc2)o1` [drawing 336]: the IC50 on recombinant human PIM2 was below 500 nM; on Pim-3 (h) it was below 1000 nM.

Take `CN(C)C[C@@H]1CCn2cc(c3ccccc32)C2=C(C(=O)NC2=O)c2cn(c3ccccc23)CCO1` [Ly5333′531]: the “cell growth and cell death in leukemic cells from AML patients” value in assay [1] is “suppressed cell growth and induced cell death”.

On to `CN1CCC(CNc2ccc3ncc(-c4cccc(OC(F)(F)F)c4)n3n2)CC1` [SGI-1776], for which, in the assay on MV-4-11 (AML) xenograft, the “tumor regression in MV-4-11 (AML) xenograft model” value is “significant tumor regression”. In the assay with MOLM-13 (AML) xenograft, the “tumor regression in MOLM-13 (AML) xenograft model” value is “significant tumor regression”.

With `CN1CCCN(C(=O)c2ccc(-c3ccc(/C=C4/C(=O)Nc5ccc(Cl)cc54)o3)cc2)CC1` [drawing 337], the IC50 on recombinant human PIM2 was below 500 nM; at Pim-3 (h), below 1000 nM.

For the molecule `CCN(CC)CCC(=O)Nc1cccc(-c2ccc(/C=C3/C(=O)Nc4ccccc43)o2)c1` [drawing 235], the IC50 on recombinant PIM-1 came to 259 nM; with K-562 it was 472 nM; in assay [2], 101 nM; in assay [3], 3930 nM; in the assay with MV-4-11, 349 nM; in the assay on THP-1 it was 3770 nM. Besides, the IC50 in the assay on phospho FLT3 is above 10000 nM; in the assay on phospho BAD, 1410 nM.

Consider `O=C1Nc2ccc(Cl)cc2/C1=C\c1ccc(-c2cccc(C(=O)NCCN(CCO)CCO)c2)o1` [drawing 238], for which the IC50 was 81 nM at recombinant PIM-1; 1610 nM in the assay with K-562; above 30000 nM in assay [2]; above 30000 nM in assay [3]; 288 nM in the assay with MV-4-11; 2900 nM with THP-1. The IC50 with phospho FLT3 is above 10000 nM; in the assay with phospho BAD, 609 nM.

`C/C(=C1\C(=O)Nc2ccc(Cl)cc21)c1ccc(-c2cccc(C(=O)N3CCCN(C)CC3)c2)o1`: the IC50 in the assay on K-562 came out at 777 nM; in the assay on MDAMB-231, 816 nM; in the assay with MV-4-11 it was 178 nM; with BxPC3, 785 nM; in the assay with phospho FLT3, 9060 nM; in the assay on phospho BAD it was 1760 nM.

With `O=C(CN1CCCC1)Nc1cccc(-c2ccc(/C=C3/C(=O)Nc4ccccc43)o2)c1` [drawing 236], the IC50 on recombinant PIM-1 is 549 nM; in the assay with K-562, 1370 nM; in [2] it was above 10000 nM; in assay [3], 1350 nM; in the assay with MV-4-11, 350 nM; in the assay with THP-1, 3860 nM. The values for the IC50 with phospho FLT3 and in the assay with phospho BAD were above 10000 nM and 2130 nM, respectively.
